This is an account of results in patent US20130012432A1, “Peptides for Treatment of Obesity” (Novo Nordisk A/S, priority 2010, published 2013).

The target of one data set is MC1 receptor (Homo sapiens, UniProt Q01726). The experiment in a line: biochemical. Summed up:
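Compounds competed against 125I-NDP-α-MSH (22 pM final) for binding to stably MC1-expressing BHK cell membranes, 30 °C for 90 min in HEPES pH 7.4 buffer with 0.1% HSA or ovalbumin. Bound ligand collected by filtration and counted; binding curves analysed by non-linear regression.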

A short description of a further data set: physchem. As for the experimental part: From a stock solution in vehicle, either H2O or 10 mM phosphate, containing 1 mg (as weighed) compound per ml, 8-11 aliquots are withdrawn and pH-adjusted individually with HCl/NaOH, to cover the whole pH range.

Values after ≈ are worked out from the molar mass of the structure shown. Positions of bridges follow the written chain, without caps; N, C: chain ends. Non-standard residues stand in square brackets, D forms with d. Residues, ends and D or L forms follow the SMILES beside them. Groups on a side chain read outwards from the residue. *: point of attachment. Palmitoyl(16-(5-tetrazolyl)) = O=C(CCCCCCCCCCCCCCCc1nnn[nH]1)*; Lys(CH2CO2H)2 = N[C@@H](CCCCN(CC(=O)O)CC(=O)O)C(=O)O; C16 diacid = O=C(O)CCCCCCCCCCCCCCC(=O)*; Hyp = O=C(O)[C@@H]1C[C@@H](O)CN1; hCys = N[C@@H](CCS)C(=O)O; Orn = NCCC[C@H](N)C(=O)O; Dab = NCC[C@H](N)C(=O)O; AEEA = NCCOCCOCC(=O)O

Chain of MC1 receptor (Q01726 whole entry): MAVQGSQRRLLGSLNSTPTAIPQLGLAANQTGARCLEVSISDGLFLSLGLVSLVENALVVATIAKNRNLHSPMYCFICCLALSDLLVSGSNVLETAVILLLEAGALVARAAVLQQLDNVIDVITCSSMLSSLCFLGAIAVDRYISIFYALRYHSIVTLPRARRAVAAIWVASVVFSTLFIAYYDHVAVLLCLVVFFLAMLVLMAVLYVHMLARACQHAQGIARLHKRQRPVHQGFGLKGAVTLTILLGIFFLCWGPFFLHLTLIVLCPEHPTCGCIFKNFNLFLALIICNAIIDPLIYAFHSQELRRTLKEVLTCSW

Turning to `CC(=O)N[C@H]1CCNC(=O)C[C@@H](C(=O)N2CCC[C@H]2C(=O)N2CCC[C@H]2C(=O)N[C@@H](CCCNC(=N)N)C(=O)N[C@@H](CCC(=O)O)C(=O)N[C@@H](CCCCN(CC(=O)O)CC(=O)O)C(=O)N[C@@H](CCCCNC(=O)COCCOCCNC(=O)CCCCCCCCCCCCCCCc2nnn[nH]2)C(N)=O)NC(=O)[C@H](Cc2c[nH]c3ccccc23)NC(=O)[C@H](CCCNC(=N)N)NC(=O)[C@@H](Cc2ccccc2)NC(=O)[C@H](Cc2c[nH]cn2)NC1=O` [Example 15, Ac-c[Dab-His-D-Phe-Arg-Trp-Asp]-Pro-Pro-Arg-Glu-Lys(biscarboxymethyl)-Lys[(2-{2-[16-(tetrazol-5-yl)hexadecanoylamino]ethoxy}ethoxy)acetyl]-NH2] (Ac-[Dab]H[dF]RWDPPRE[Lys(CH2CO2H)2]K([AEEA-Palmitoyl(16-(5-tetrazolyl))])-NH2; lactam 1-6), on MC1 receptor, the Ki (as a rule, the dissociation constant of the complex between target and ligand, obtained from inhibition or displacement) was greater than 10 µM. The solubility (in general, the dissolved amount per volume that the medium holds) in “physchem” (pH 5, Solubility Conc.) is 49 µM (≈ 107 µg/mL); in the data set “physchem” (pH 6.1, Solubility Conc.), 26 µM (≈ 56.9 µg/mL); in the data set “physchem” (pH 6.8, Solubility Conc.) it was 60 µM (≈ 131 µg/mL); in “physchem” (pH 7.1, Solubility Conc.) it was 147 µM (≈ 321 µg/mL); in “physchem” (pH 7.3, Solubility Conc.), 395 µM (≈ 864 µg/mL); in “physchem” (pH 7.4, Solubility Conc.) it was 445 µM (≈ 973 µg/mL). In addition, the solubility came out at 461 µM (≈ 1010 µg/mL) in “physchem” (pH 7.7, Solubility Conc.); 441 µM (≈ 964 µg/mL) in the data set “physchem” (pH 7.8, Solubility Conc.); 417 µM (≈ 912 µg/mL) in the data set “physchem” (pH 8, Solubility Conc.).
`CC(=O)N[C@H]1CCSSC[C@@H](C(=O)N2CCC[C@H]2C(=O)N2CCC[C@H]2C(=O)N[C@@H](CO)C(=O)N[C@@H](CCC(=O)O)C(=O)N[C@@H](CCCCN(CC(=O)O)CC(=O)O)C(=O)N[C@@H](CCCCNC(=O)COCCOCCNC(=O)CCCCCCCCCCCCCCC(=O)O)C(N)=O)NC(=O)[C@H](Cc2c[nH]c3ccccc23)NC(=O)[C@H](CCCNC(=N)N)NC(=O)[C@@H](Cc2ccccc2)NC(=O)[C@H](Cc2c[nH]cn2)NC1=O` [Example 70, Ac-c[homoCys-His-D-Phe-Arg-Trp-Cys]-Pro-Pro-Ser-Glu-Lys(biscarboxymethyl)-Lys({2-[2-(15-carboxypentadecanoylamino)ethoxy]ethoxy}acetyl)-NH2] (Ac-[hCys]H[dF]RWCPPSE[Lys(CH2CO2H)2]K([AEEA-C16 diacid])-NH2; disulfide 1-6) displayed a Ki at MC1 receptor greater than 10 µM. The solubility came to 190 µM (≈ 399 µg/mL) in “physchem” (pH 3.4, Solubility Conc.); 65 µM (≈ 137 µg/mL) in “physchem” (pH 3.9, Solubility Conc.); 40 µM (≈ 84 µg/mL) in “physchem” (pH 4.4, Solubility Conc.); 59 µM (≈ 124 µg/mL) in the data set “physchem” (pH 5.5, Solubility Conc.); 142 µM (≈ 298 µg/mL) in the data set “physchem” (pH 5.6, Solubility Conc.); 210 µM (≈ 441 µg/mL) in “physchem” (pH 5.8, Solubility Conc.). Also, the solubility in the data set “physchem” (pH 6.1, Solubility Conc.) stood at 429 µM (≈ 901 µg/mL); in “physchem” (pH 7.5, Solubility Conc.), 444 µM (≈ 933 µg/mL); in “physchem” (pH 7.8, Solubility Conc.), 463 µM (≈ 973 µg/mL); in “physchem” (pH 8, Solubility Conc.), 440 µM (≈ 924 µg/mL).
On to `CC(=O)N[C@H]1CCC(=O)NCC[C@@H](C(=O)N2C[C@H](O)C[C@H]2C(=O)N2C[C@H](O)C[C@H]2C(=O)N[C@@H](CCCNC(=N)N)C(=O)N[C@@H](CC(=O)O)C(=O)N[C@@H](CCCCN(CC(=O)O)CC(=O)O)C(=O)N[C@@H](CCCCNC(=O)COCCOCCNC(=O)CCCCCCCCCCCCCCCc2nnn[nH]2)C(N)=O)NC(=O)[C@H](Cc2c[nH]c3ccccc23)NC(=O)[C@H](CCCNC(=N)N)NC(=O)[C@@H](Cc2ccccc2)NC(=O)[C@H](Cc2c[nH]cn2)NC1=O` [Example 32, Ac-c[Glu-His-D-Phe-Arg-Trp-Dab]-Hyp-Hyp-Arg-Asp-Lys(biscarboxymethyl)-Lys[(2-{2-[16-(tetrazol-5-yl)hexadecanoylamino]ethoxy}ethoxy)acetyl]-NH2] (Ac-EH[dF]RW[Dab][Hyp][Hyp]RD[Lys(CH2CO2H)2]K([AEEA-Palmitoyl(16-(5-tetrazolyl))])-NH2; lactam 1-6), for which the Ki on MC1 receptor is greater than 10 µM. For the same compound, the solubility stood at 40 µM (≈ 88.7 µg/mL) in “physchem” (pH 6.7, Solubility Conc.); 60 µM (≈ 133 µg/mL) in “physchem” (pH 7, Solubility Conc.); 89 µM (≈ 197 µg/mL) in the data set “physchem” (pH 7.2, Solubility Conc.); 258 µM (≈ 572 µg/mL) in the data set “physchem” (pH 7.5, Solubility Conc.); 324 µM (≈ 719 µg/mL) in “physchem” (pH 7.6, Solubility Conc.); 640 µM (≈ 1420 µg/mL) in “physchem” (pH 7.8, Solubility Conc.). In addition, the solubility in “physchem” (pH 7.9, Solubility Conc.) is 674 µM (≈ 1500 µg/mL); in the data set “physchem” (pH 8.1, Solubility Conc.), 230 µM (≈ 510 µg/mL).
The compound `CC(=O)N[C@H]1CSSC[C@@H](C(=O)N2CCC[C@H]2C(=O)N2CCC[C@H]2C(=O)N[C@@H](CCCCN)C(=O)N[C@@H](CCC(=O)O)C(=O)N[C@@H](CCCCN(CC(=O)O)CC(=O)O)C(=O)N[C@@H](CCCCNC(=O)COCCOCCNC(=O)CCCCCCCCCCCCCCCc2nnn[nH]2)C(N)=O)NC(=O)[C@H](Cc2c[nH]c3ccccc23)NC(=O)[C@H](CCCNC(=N)N)NC(=O)[C@@H](Cc2ccccc2)NC(=O)[C@H](Cc2c[nH]cn2)NC(=O)[C@H](CCC(=O)O)NC1=O` [Example 63, Ac-c[Cys-Glu-His-D-Phe-Arg-Trp-Cys]-Pro-Pro-Lys-Glu-Lys(biscarboxymethyl)-Lys[(2-{2-[16-(tetrazol-5-yl)hexadecanoylamino]ethoxy}ethoxy)acetyl]-NH2] (Ac-CEH[dF]RWCPPKE[Lys(CH2CO2H)2]K([AEEA-Palmitoyl(16-(5-tetrazolyl))])-NH2; disulfide 1-7) yielded a Ki on MC1 receptor greater than 10 µM. The solubility was 33 µM (≈ 75.7 µg/mL) in “physchem” (pH 3.8, Solubility Conc.); 23 µM (≈ 52.8 µg/mL) in “physchem” (pH 4.2, Solubility Conc.); 28 µM (≈ 64.3 µg/mL) in the data set “physchem” (pH 4.6, Solubility Conc.); 78 µM (≈ 179 µg/mL) in the data set “physchem” (pH 5.1, Solubility Conc.); 484 µM (≈ 1110 µg/mL) in the data set “physchem” (pH 6, Solubility Conc.); 451 µM (≈ 1030 µg/mL) in “physchem” (pH 7.9, Solubility Conc.). Also, the solubility came to 417 µM (≈ 957 µg/mL) in the data set “physchem” (pH 8.1, Solubility Conc.); 495 µM (≈ 1140 µg/mL) in the data set “physchem” (pH 8.5, Solubility Conc.); 465 µM (≈ 1070 µg/mL) in the data set “physchem” (pH 8.9, Solubility Conc.).
At MC1 receptor, `CC(=O)N[C@H]1CCC(=O)NCCCC[C@@H](C(=O)N2CCC[C@H]2C(=O)N2CCC[C@H]2C(=O)N[C@@H](CCCNC(=N)N)C(=O)N[C@@H](CC(=O)O)C(=O)N[C@@H](CCCCN(CC(=O)O)CC(=O)O)C(=O)N[C@@H](CCCCNC(=O)COCCOCCNC(=O)CCCCCCCCCCCCCCCc2nnn[nH]2)C(N)=O)NC(=O)[C@H](Cc2c[nH]c3ccccc23)NC(=O)[C@H](CCCNC(=N)N)NC(=O)[C@@H](Cc2ccccc2)NC(=O)[C@H](Cc2c[nH]cn2)NC1=O` [Example 27, Ac-c[Glu-His-D-Phe-Arg-Trp-Lys]-Pro-Pro-Arg-Asp-Lys(biscarboxymethyl)-Lys[(2-{2-[16-(tetrazol-5-yl)hexadecanoylamino]ethoxy}ethoxy)acetyl]-NH2] (Ac-EH[dF]RWKPPRD[Lys(CH2CO2H)2]K([AEEA-Palmitoyl(16-(5-tetrazolyl))])-NH2; lactam 1-6) displayed a Ki greater than 10 µM. Also, the solubility stood at 42 µM (≈ 93 µg/mL) in the data set “physchem” (pH 6.6, Solubility Conc.); 65 µM (≈ 144 µg/mL) in “physchem” (pH 6.9, Solubility Conc.); 263 µM (≈ 582 µg/mL) in the data set “physchem” (pH 7.2, Solubility Conc.); 394 µM (≈ 873 µg/mL) in “physchem” (pH 7.3, Solubility Conc.); 459 µM (≈ 1020 µg/mL) in “physchem” (pH 7.4, Solubility Conc.); 474 µM (≈ 1050 µg/mL) in “physchem” (pH 7.5, Solubility Conc.). Further, the solubility in the data set “physchem” (pH 7.6, Solubility Conc.) is 521 µM (≈ 1150 µg/mL); in “physchem” (pH 7.8, Solubility Conc.) it was 481 µM (≈ 1070 µg/mL); in the data set “physchem” (pH 8.1, Solubility Conc.) it was 435 µM (≈ 963 µg/mL).
`CC(=O)N[C@H]1CCC(=O)NCCC[C@@H](C(=O)N2CCC[C@H]2C(=O)N2CCC[C@H]2C(=O)N[C@@H](CC(=O)O)C(=O)N[C@@H](CCCCN(CC(=O)O)CC(=O)O)C(=O)N[C@@H](CCCCNC(=O)COCCOCCNC(=O)CCCCCCCCCCCCCCC(=O)O)C(N)=O)NC(=O)[C@H](Cc2c[nH]c3ccccc23)NC(=O)[C@H](CCCNC(=N)N)NC(=O)[C@@H](Cc2ccccc2)NC(=O)[C@H](Cc2c[nH]cn2)NC1=O` [Example 13, Ac-c[Glu-His-D-Phe-Arg-Trp-Orn]-Pro-Pro-Asp-Lys(biscarboxymethyl)-Lys({2-[2-(15-carboxypentadecanoylamino)ethoxy]ethoxy}acetyl)-NH2] (Ac-EH[dF]RW[Orn]PPD[Lys(CH2CO2H)2]K([AEEA-C16 diacid])-NH2; lactam 1-6) yielded a Ki on MC1 receptor greater than 10 µM. Besides, the solubility in the data set “physchem” (pH 5.5, Solubility Conc.) is 348 µM (≈ 698 µg/mL); in the data set “physchem” (pH 5.7, Solubility Conc.) it was 494 µM (≈ 991 µg/mL); in the data set “physchem” (pH 6.1, Solubility Conc.), 473 µM (≈ 949 µg/mL); in the data set “physchem” (pH 6.5, Solubility Conc.) it was 469 µM (≈ 941 µg/mL); in the data set “physchem” (pH 6.8, Solubility Conc.) it was 459 µM (≈ 921 µg/mL); in the data set “physchem” (pH 7.1, Solubility Conc.), 506 µM (≈ 1020 µg/mL). For the same compound, the solubility in the data set “physchem” (pH 7.3, Solubility Conc.) amounted to 467 µM (≈ 937 µg/mL); in the data set “physchem” (pH 7.7, Solubility Conc.), 472 µM (≈ 947 µg/mL); in “physchem” (pH 7.9, Solubility Conc.), 493 µM (≈ 989 µg/mL).
